Source: PubChem BioAssay (NCI)
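96-well plates; 48 h exposure; 5 concentrations. Endpoints by linear interpolation between flanking doses. Not reached: highest tested concentration assigned. TGI: total growth inhibition.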

Experiments:
Test in all cases: DTP human tumour cell line panel, 48 h
SW-620 colon = test system: SW-620 colon
SNB-75 CNS = test system: SNB-75 CNS
HS 578T breast = test system: HS 578T breast
A498 renal = test system: A498 renal
COLO 205 colon = test system: COLO 205 colon
MALME-3M melanoma = test system: MALME-3M melanoma
U251 CNS = test system: U251 CNS
HCC-2998 colon = test system: HCC-2998 colon
HT29 colon = test system: HT29 colon
RXF 393 renal = test system: RXF 393 renal
HCT-15 colon = test system: HCT-15 colon
EKVX NSCLC = test system: EKVX NSCLC
NCI-H522 lung = test system: NCI-H522 lung
M14 melanoma = test system: M14 melanoma
PC-3 prostate = test system: PC-3 prostate
IGROV1 ovarian = test system: IGROV1 ovarian
786-0 renal = test system: 786-0 renal
UACC-257 melanoma = test system: UACC-257 melanoma
DU-145 prostate = test system: DU-145 prostate
MDA-MB-231 breast = test system: MDA-MB-231 breast
HL-60(TB) leukemia = test system: HL-60(TB) leukemia
SK-MEL-5 melanoma = test system: SK-MEL-5 melanoma
CAKI-1 renal = test system: CAKI-1 renal
SNB-19 CNS = test system: SNB-19 CNS
LOX IMVI melanoma = test system: LOX IMVI melanoma
SF-268 CNS = test system: SF-268 CNS
OVCAR-3 ovarian = test system: OVCAR-3 ovarian
OVCAR-8 ovarian = test system: OVCAR-8 ovarian
SR leukemia = test system: SR leukemia
BT-549 breast = test system: BT-549 breast
K-562 leukemia = test system: K-562 leukemia
MOLT-4 leukemia = test system: MOLT-4 leukemia
UO-31 renal = test system: UO-31 renal
OVCAR-5 ovarian = test system: OVCAR-5 ovarian
HOP-62 NSCLC = test system: HOP-62 NSCLC
TK-10 renal = test system: TK-10 renal
NCI/ADR-RES ovarian = test system: NCI/ADR-RES ovarian
MDA-N = test system: MDA-N
MCF7 breast = test system: MCF7 breast
UACC-62 melanoma = test system: UACC-62 melanoma
OVCAR-4 ovarian = test system: OVCAR-4 ovarian
HCT-116 colon = test system: HCT-116 colon
ACHN renal = test system: ACHN renal
HOP-92 NSCLC = test system: HOP-92 NSCLC
T-47D breast = test system: T-47D breast
SK-OV-3 ovarian = test system: SK-OV-3 ovarian
NCI-H226 lung = test system: NCI-H226 lung
NCI-H460 lung = test system: NCI-H460 lung
MDA-MB-435 = test system: MDA-MB-435
SK-MEL-2 melanoma = test system: SK-MEL-2 melanoma
KM12 colon = test system: KM12 colon
SF-295 CNS = test system: SF-295 CNS
SN12C renal = test system: SN12C renal
SK-MEL-28 melanoma = test system: SK-MEL-28 melanoma
A549 NSCLC = test system: A549 NSCLC
RPMI-8226 leukemia = test system: RPMI-8226 leukemia
SF-539 CNS = test system: SF-539 CNS
NCI-H23 lung = test system: NCI-H23 lung
CCRF-CEM leukemia = test system: CCRF-CEM leukemia

Measured: TGI

COC(=O)[C@H](Cc1c[nH]c2ccccc12)NC(=O)c1ccccc1I
39.8 µM: RXF 393 renal
84.5 µM: MDA-MB-435
56.9 µM: MOLT-4 leukemia
33.4 µM: UO-31 renal
50.6 µM: CAKI-1 renal
76.2 µM: T-47D breast
29.6 µM: SK-MEL-5 melanoma
35.8 µM: MALME-3M melanoma
59.3 µM: PC-3 prostate
32.4 µM: SNB-75 CNS | M14 melanoma
35.2 µM: HOP-92 NSCLC
34.1 µM: UACC-62 melanoma
77.3 µM: TK-10 renal
58.7 µM: SR leukemia
82.2 µM: NCI-H226 lung
37.4 µM: A498 renal
54 µM: HL-60(TB) leukemia
34.6 µM: 786-0 renal
45.8 µM: SK-MEL-2 melanoma
53.9 µM: DU-145 prostate
30.8 µM: ACHN renal
47 µM: SF-268 CNS
44.8 µM: LOX IMVI melanoma
42.6 µM: MDA-N
82.6 µM: HCC-2998 colon
33.3 µM: COLO 205 colon
35.1 µM: UACC-257 melanoma
> 100 µM: SW-620 colon | U251 CNS | HT29 colon | HCT-15 colon | EKVX NSCLC | IGROV1 ovarian | MDA-MB-231 breast | SNB-19 CNS | OVCAR-8 ovarian | BT-549 breast | K-562 leukemia | OVCAR-5 ovarian | HOP-62 NSCLC | NCI/ADR-RES ovarian | MCF7 breast | OVCAR-4 ovarian | HCT-116 colon | SK-OV-3 ovarian | NCI-H460 lung | KM12 colon | SF-295 CNS | SN12C renal | SK-MEL-28 melanoma | A549 NSCLC
30.9 µM: NCI-H522 lung
33.1 µM: OVCAR-3 ovarian
29.8 µM: HS 578T breast

Cc1cc2nnc(C(N)=O)c(N)c2cc1C
68.3 µM: 786-0 renal
39.6 µM: SNB-75 CNS
> 100 µM: SW-620 colon | HS 578T breast | A498 renal | COLO 205 colon | MALME-3M melanoma | U251 CNS | HCC-2998 colon | HT29 colon | HCT-15 colon | EKVX NSCLC | NCI-H522 lung | RPMI-8226 leukemia | M14 melanoma | PC-3 prostate | IGROV1 ovarian | UACC-257 melanoma | DU-145 prostate | MDA-MB-231 breast | HL-60(TB) leukemia | SK-MEL-5 melanoma | CAKI-1 renal | SNB-19 CNS | LOX IMVI melanoma | SF-539 CNS | SF-268 CNS | OVCAR-3 ovarian | OVCAR-8 ovarian | SR leukemia | BT-549 breast | K-562 leukemia | MOLT-4 leukemia | UO-31 renal | NCI-H23 lung | OVCAR-5 ovarian | HOP-62 NSCLC | TK-10 renal | NCI/ADR-RES ovarian | MDA-N | MCF7 breast | UACC-62 melanoma | OVCAR-4 ovarian | HCT-116 colon | ACHN renal | HOP-92 NSCLC | T-47D breast | SK-OV-3 ovarian | NCI-H226 lung | NCI-H460 lung | MDA-MB-435 | SK-MEL-2 melanoma | KM12 colon | SF-295 CNS | CCRF-CEM leukemia | SN12C renal | A549 NSCLC

COc1cc(OC)c(C2(c3c(OC(C)C)c(=O)c3=O)SCCCS2)cc1OC
> 100 µM: SW-620 colon | SNB-75 CNS | HS 578T breast | A498 renal | COLO 205 colon | MALME-3M melanoma | U251 CNS | HCC-2998 colon | HT29 colon | RXF 393 renal | HCT-15 colon | EKVX NSCLC | NCI-H522 lung | RPMI-8226 leukemia | M14 melanoma | PC-3 prostate | IGROV1 ovarian | 786-0 renal | UACC-257 melanoma | DU-145 prostate | MDA-MB-231 breast | HL-60(TB) leukemia | SK-MEL-5 melanoma | CAKI-1 renal | SNB-19 CNS | LOX IMVI melanoma | SF-539 CNS | SF-268 CNS | OVCAR-3 ovarian | OVCAR-8 ovarian | SR leukemia | BT-549 breast | K-562 leukemia | UO-31 renal | NCI-H23 lung | OVCAR-5 ovarian | HOP-62 NSCLC | TK-10 renal | NCI/ADR-RES ovarian | MDA-N | MCF7 breast | UACC-62 melanoma | OVCAR-4 ovarian | HCT-116 colon | ACHN renal | HOP-92 NSCLC | T-47D breast | SK-OV-3 ovarian | NCI-H226 lung | NCI-H460 lung | MDA-MB-435 | SK-MEL-2 melanoma | KM12 colon | SF-295 CNS | CCRF-CEM leukemia | SN12C renal | SK-MEL-28 melanoma | A549 NSCLC

S=C(CSc1ccccc1)Nc1cccc2ccccc12
68.3 µM: UACC-257 melanoma
88.7 µM: OVCAR-3 ovarian
76.4 µM: SF-539 CNS
97.1 µM: SF-295 CNS
63.2 µM: MOLT-4 leukemia
71 µM: A498 renal
> 100 µM: SW-620 colon | SNB-75 CNS | HS 578T breast | MALME-3M melanoma | U251 CNS | HT29 colon | RXF 393 renal | HCT-15 colon | EKVX NSCLC | NCI-H522 lung | RPMI-8226 leukemia | M14 melanoma | PC-3 prostate | IGROV1 ovarian | 786-0 renal | DU-145 prostate | MDA-MB-231 breast | HL-60(TB) leukemia | CAKI-1 renal | SNB-19 CNS | LOX IMVI melanoma | SF-268 CNS | OVCAR-8 ovarian | BT-549 breast | K-562 leukemia | UO-31 renal | NCI-H23 lung | OVCAR-5 ovarian | HOP-62 NSCLC | TK-10 renal | NCI/ADR-RES ovarian | MDA-N | MCF7 breast | UACC-62 melanoma | OVCAR-4 ovarian | HCT-116 colon | ACHN renal | HOP-92 NSCLC | T-47D breast | SK-OV-3 ovarian | NCI-H226 lung | NCI-H460 lung | MDA-MB-435 | KM12 colon | SN12C renal | SK-MEL-28 melanoma | A549 NSCLC
68.8 µM: SR leukemia
36.6 µM: SK-MEL-5 melanoma
32 µM: COLO 205 colon
74.5 µM: SK-MEL-2 melanoma
